# Several values for one entry are separate records, joined by “and”; a condition that tells them apart may be missing. Equal values may be shown once.
# Tests used:
# CD94/NKG2A [1] = conditions: cited from earlier work
# CD94/NKG2A [2] = format: binding, human
# CD94/NKG2C = format: binding, human
# HLA-E*0103 = HLA-E*0103 (Homo sapiens, UniProt P13747); format: binding
# CD56dimNKG2A+ NK cells = format: cell-based, human
# CD56dimNKG2A- NK cells = format: cell-based, human
substance,measurement,setting,value
AISPRTLNA [AA9],recognition of HLA-E/peptide complex by NKG2A/CD94 on NK cells,CD94/NKG2A [1],unable to be recognized by NKG2A/CD94
EADPTGHSY [MAGE-1],CD94/NKG2A+HLA-E+,CD94/NKG2A [2],0.02% and 0.28% and 0.56%
same,CD94/NKG2C+HLA-E+,CD94/NKG2C,0.54% and 1.07% and 0.11%
EADPTGHSY/ NLVPMVATV [MAGE-1/HCMV PP65],HLA-E MFI,HLA-E*0103,8070 and 8138 and 7351
LQPRTFLL,recognition of HLA-E/peptide complex by CD94/NKG2A on NK cells,CD94/NKG2A [1],could recognize and interact
NLVPMVATV [PP65],CD107a+CD56dimCD16+NKG2A+NKG2C-CD57-NK cells,CD56dimNKG2A+ NK cells,4.88 and 4.5 and 3.34
same,Perforin+CD56dimCD16+NKG2A-NKG2C-CD57-NK cells,CD56dimNKG2A- NK cells,97.2 and 72.64 and 80.98 and 81.41
VMAPRTLIL [HLA-Cw*03 leading seq],CD94/NKG2A+HLA-E+,CD94/NKG2A [2],46.76% and 47.67% and 24.83%
same,frequency of CD94/NKG2A+HLA-E+ cells,CD94/NKG2A [2],47.67%
same,CD94/NKG2C+HLA-E+,CD94/NKG2C,1.12% and 2.94% and 8.23%
same,FI,HLA-E*0103,2.38 and 2.67 and 2.55
same,FI (fluorescent index of HLA-E expression),HLA-E*0103,2.55
same,HLA-E MFI,HLA-E*0103,26721 and 22777 and 24852
VMPLSAPTL,recognition of HLA-E/peptide complex by CD94/NKG2A on NK cells,CD94/NKG2A [1],could not be interacted with CD94/NKG2A

# — publication PMC12303380 (PLOS Pathogens, 2025)
